From patent publication US20100311748A1, “HETEROCYCLIC AMIDES USEFUL FOR THE TREATMENT OF CANCER AND PSORIASIS” (ASTRAZENECA AB, priority 2007, published 2010)

System: Hedgehog pathway
Test: Hedgehog Pathway Cellular Differentiation Assay (alkaline phosphatase production in C3H10T1/2 cells with Shh ligand)
Assay type: cell-based
Conditions: Mus musculus, C3H 10T1/2, 3 μM compound, Shh ligand conditioned media, 72 h, alkaline phosphatase
How it was run: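 C3H10T1/2 cells in DMEM/2% FBS with Shh-conditioned medium were treated 72 h with compound, threefold dilutions from 30 μM to 3 nM. After RIPA lysis, alkaline phosphatase was read with pNp (1 mg/mL, diethanolamine pH 9.8) at 30 °C, absorbance 405 nm. Percent inhibition and IC50 came from absorbance.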

Structure (SMILES)	inhibition at 3 µM
Cc1ccc(-c2ncc[nH]2)cc1NC(=O)c1ccc(OCc2ccccn2)nc1 [Example 111, N-[5-(1H-imidazol-2-yl)-2-methylphenyl]-6-(pyridin-2-ylmethoxy)pyridine-3-carboxamide]	-0.1%
Cc1cc(C)c(-c2ncn(C)c2CO)cc1NC(=O)c1ccc(OCc2ccccn2)cc1 [Example 79, N-(5-(5-(hydroxymethyl)-1-methyl-1H-imidazol-4-yl)-2,4-dimethylphenyl)-4-(pyridin-2-ylmethoxy)benzamide]	85.9%
Cc1c[nH]c(-c2ccc(C)c(NC(=O)c3ccc(OCc4ccccc4C#N)cc3)c2)n1 [Example 44, 4-[(2-cyanophenyl)methoxy]-N-[2-methyl-5-(4-methyl-1H-imidazol-2-yl)phenyl]benzamide]	80.7%
Cc1cc(Cl)c(-c2nccn2C)cc1NC(=O)c1ccc(OCc2ccccn2)cc1 [Example 74, N-[4-chloro-2-methyl-5-(1-methyl-1H-imidazol-2-yl)phenyl]-4-(pyridin-2-ylmethoxy)benzamide]	76.2%
CNCc1c(-c2ccc(C)c(NC(=O)c3ccc(OCc4ccccn4)cc3)c2)ncn1C [Example 80, N-(2-methyl-5-{1-methyl-5-[(methylamino)methyl]-1H-imidazol-4-yl}phenyl)-4-(pyridin-2-ylmethoxy)benzamide]	57.1%
Cc1cc(C)c(-c2cn(C)cn2)cc1NC(=O)c1ccc(OCc2ccccn2)cc1 [Example 71, N-[2,4-dimethyl-5-(1-methyl-1H-imidazol-4-yl)phenyl]-4-(pyridin-2-ylmethoxy)benzamide]	84.9%
Cc1ccc(-c2ncc[nH]2)cc1NC(=O)c1ccc(OCc2cc(OCCN(C)C)ccn2)cc1 [Example 94, 4-({4-[2-(dimethylamino)ethoxy]pyridin-2-yl}methoxy)-N-[5-(1H-imidazol-2-yl)-2-methylphenyl]benzamide]	56.7%
Cc1ccc(-c2cnc3ccccc3n2)cc1NC(=O)c1ccc(OCc2ccccn2)cc1 [Example 22, N-(2-methyl-5-quinoxalin-2-yl-phenyl)-4-(pyridin-2-ylmethoxy)benzamide]	60.7%
Cc1ccc(-c2nc(-c3ccc(N4CCCC4)cc3)c[nH]2)cc1NC(=O)c1ccc(OCc2ccccn2)cc1 [Example 83, N-{2-methyl-5-[4-(4-pyrrolidin-1-ylphenyl)-1H-imidazol-2-yl]phenyl}-4-(pyridin-2-ylmethoxy)benzamide]	15.1%
Cc1nc(-c2cc(NC(=O)c3ccc(OCc4ccccn4)cc3)c(C)cc2F)c[nH]1 [Example 103, N-[4-fluoro-2-methyl-5-(2-methyl-1H-imidazol-4-yl)phenyl]-4-(pyridin-2-ylmethoxy)benzamide]	85.6%
Cc1ccc(-c2cccnc2)cc1NC(=O)c1ccc(OCc2ccccn2)cc1 [Example 7, N-(2-methyl-5-pyridin-3-yl-phenyl)-4-(pyridin-2-ylmethoxy)benzamide]	70.8%
Cc1ccc(-c2ncc[nH]2)cc1NC(=O)c1cccc(Cl)c1 [Example 152, 3-chloro-N-[5-(1H-imidazol-2-yl)-2-methyl-phenyl]benzamide]	45.3%
Cc1ccc(-c2nccs2)cc1NC(=O)c1ccc(OCc2ccccn2)cc1 [Example 16, N-(2-methyl-5-1,3-thiazol-2-yl-phenyl)-4-(pyridin-2-ylmethoxy)benzamide]	68.6%
CCOC(=O)c1sc(-c2ccc(C)c(NC(=O)c3ccc(OCc4ccccn4)cc3)c2)nc1C [Example 19, ethyl 4-methyl-2-[4-methyl-3-[[4-(pyridin-2-ylmethoxy)benzoyl]amino]phenyl]1,3-thiazole-5-carboxylate]	52%
Cc1ccc(-c2nccn2C)cc1NC(=O)c1ccc(OCc2ccc(Br)cc2C#N)cc1 [Example 99, 4-[(4-bromo-2-cyanobenzyl)oxy]-N-[2-methyl-5-(1-methyl-1H-imidazol-2-yl)phenyl]benzamide]	29.9%
CCc1c[nH]c(-c2ccc(C)c(NC(=O)c3ccc(OCc4ccccn4)cc3)c2)n1 [Example 85, N-[5-(4-ethyl-1H-imidazol-2-yl)-2-methylphenyl]-4-(pyridin-2-ylmethoxy)benzamide]	78.8%
Cc1ccc(-c2ncc[nH]2)cc1NC(=O)c1ccc(OCc2ncccc2C#N)cc1 [Example 136, N-(5-(1H-imidazol-2-yl)-2-methylphenyl)-4-((3-cyanopyridin-2-yl)methoxy)benzamide]	77%
Cc1ccc(-c2nccn2C)cc1NC(=O)c1ccc(OCc2cc(Cl)ccn2)cc1 [Example 91, 4-[(4-chloropyridin-2-yl)methoxy]-N-[2-methyl-5-(1-methyl-1H-imidazol-2-yl)phenyl]benzamide]	80.4%
Cc1nc(-c2ccc(C)c(NC(=O)c3ccc(OCc4ccccn4)cc3)c2)c[nH]1 [Example 24, N-[2-methyl-5-(2-methyl-1H-imidazol-4-yl)phenyl]-4-(pyridin-2-ylmethoxy)benzamide]	81.1%
Cc1ccc(-c2nc(C(C)(C)C)c[nH]2)cc1NC(=O)c1ccc(OCc2ccccn2)cc1 [Example 86, N-[5-(4-tert-butyl-1H-imidazol-2-yl)-2-methylphenyl]-4-(pyridin-2-ylmethoxy)benzamide]	85.7%
Cc1ccc(-c2ccccc2)cc1NC(=O)c1ccc(OCc2ccccn2)cc1 [Example 65, N-(2-methyl-5-phenyl-phenyl)-4-(pyridin-2-ylmethoxy)benzamide]	50%
Cc1ccc(-c2ccc(N)nn2)cc1NC(=O)c1ccc(OCc2ccccn2)cc1 [Example 15, N-[5-(6-aminopyridazin-3-yl)-2-methyl-phenyl]-4-(pyridin-2-ylmethoxy)benzamide]	80.7%
Cc1ccc(-c2nccn2C)cc1NC(=O)c1ccc(OCc2cc(N(C)CCN(C)C)ccc2C#N)cc1 [Example 116, 4-[(2-cyano-5-{[2-(dimethylamino)ethyl](methyl)amino}benzyl)oxy]-N-[2-methyl-5-(1-methyl-1H-imidazol-2-yl)phenyl]benzamide]	83.4%
Cc1ccc(-c2ncc[nH]2)cc1NC(=O)c1ccc(OCc2ccc(OCCO)cn2)cc1 [Example 131, N-(5-(1H-imidazol-2-yl)-2-methylphenyl)-4-((5-(2-hydroxyethoxy)pyridin-2-yl)methoxy)benzamide]	72.7%
Cc1ccc(-c2ncc[nH]2)cc1NC(=O)c1ccc(OCc2cccc(C#N)c2)cc1 [Example 61, 4-[(3-cyanobenzyl)oxy]-N-[5-(1H-imidazol-2-yl)-2-methylphenyl]benzamide]	82.1%
Cc1ccc(-c2nccn2C)cc1NC(=O)c1ccc(OCc2ccccc2C#N)cc1 [Example 51, 4-[(2-cyanophenyl)methoxy]-N-[2-methyl-5-(1-methylimidazol-2-yl)phenyl]benzamide]	82.1%
Cc1ccc(-c2ccc(N)cn2)cc1NC(=O)c1ccc(OCc2ccccn2)cc1 [Example 6, N-[5-(5-aminopyridin-2-yl)-2-methyl-phenyl]-4-(pyridin-2-ylmethoxy)benzamide]	65.7%
COc1cc(COc2ccc(C(=O)Nc3cc(-c4nc(C)cn4C)ccc3C)cc2)cc(OC)c1 [Example 42, 4-[(3,5-dimethoxyphenyl)methoxy]-N-[5-(1,4-dimethylimidazol-2-yl)-2-methyl-phenyl]benzamide]	79.4%
